According to ChEMBL document CHEMBL1201862, “PubChem BioAssay data set” (2004):
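Briefly, cells in 96-well plates were exposed to five compound concentrations for 48 h, and endpoints were estimated by linear interpolation. GI50 = concentration required for 50% inhibition of growth.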 Activity calls are given as the source filed them. No stated cut-off is given here; in the data, active = GI50 up to about 1.1 µM and inactive = higher.

Legend:
Experiment in all cases: NCI-60 cell line screen, 48 h
SF-539 = system: SF-539
HT-29 = system: HT-29
RXF 393 = system: RXF 393
DMS-114 = system: DMS-114
UO-31 = system: UO-31
SK-MEL-2 = system: SK-MEL-2
SK-OV-3 = system: SK-OV-3
HCC 2998 = system: HCC 2998
HCT-15 = system: HCT-15
NCI-H23 = system: NCI-H23
HOP-62 = system: HOP-62
EKVX = system: EKVX
A498 = system: A498
RPMI-8226 = system: RPMI-8226
OVCAR-8 = system: OVCAR-8
XF498 = system: XF498
RXF 631 = system: RXF 631
OVCAR-5 = system: OVCAR-5
SN12C = system: SN12C
SK-MEL-5 = system: SK-MEL-5
SF-268 = system: SF-268
IGROV-1 = system: IGROV-1
TK-10 = system: TK-10
M19-MEL = system: M19-MEL
SK-MEL-28 = system: SK-MEL-28
HCT-116 = system: HCT-116
LOX IMVI = system: LOX IMVI
HOP-92 = system: HOP-92
COLO 205 = system: COLO 205
CCRF-CEM = system: CCRF-CEM
A549 = system: A549
KM12 = system: KM12
LXFL 529 = system: LXFL 529
NCI-H522 = system: NCI-H522
DLD-1 = system: DLD-1
HL-60 = system: HL-60
SW-620 = system: SW-620
SF-295 = system: SF-295
MOLT-4 = system: MOLT-4
OVCAR-4 = system: OVCAR-4
U-251 = system: U-251
DMS-273 = system: DMS-273
NCI-H226 = system: NCI-H226
SNB-19 = system: SNB-19
K562 = system: K562
UACC-62 = system: UACC-62
KM-20L2 = system: KM-20L2
SNB-78 = system: SNB-78
M14 = system: M14
786-0 = system: 786-0
ACHN = system: ACHN
NCI-H460 = system: NCI-H460
OVCAR-3 = system: OVCAR-3
SNB-75 = system: SNB-75
HOP-18 = system: HOP-18
UACC-257 = system: UACC-257
CAKI-1 = system: CAKI-1
Malme-3M = system: Malme-3M
SR = system: SR

C=C(CO)CC(O)c1ccccc1 (stereo not given)
GI50 (SF-539): > 100 µM (inactive) | GI50 (HT-29): > 100 µM (inactive) | GI50 (RXF 393): > 100 µM (inactive) | GI50 (DMS-114): > 100 µM (inactive) | GI50 (UO-31): > 100 µM (inactive) | GI50 (SK-MEL-2): > 100 µM (inactive) | GI50 (SK-OV-3): > 100 µM (inactive) | GI50 (HCC 2998): > 100 µM (inactive) | GI50 (HCT-15): > 100 µM | GI50 (NCI-H23): > 100 µM (inactive) | GI50 (HOP-62): > 100 µM (inactive) | GI50 (EKVX): > 100 µM (inactive) | GI50 (A498): > 100 µM (inactive) | GI50 (RPMI-8226): > 100 µM (inactive) | GI50 (OVCAR-8): > 100 µM (inactive) | GI50 (XF498): > 100 µM (inactive) | GI50 (RXF 631): > 100 µM (inactive) | GI50 (OVCAR-5): > 100 µM (inactive) | GI50 (SN12C): > 100 µM (inactive) | GI50 (SK-MEL-5): > 100 µM (inactive) | GI50 (SF-268): > 100 µM (inactive) | GI50 (IGROV-1): > 100 µM (inactive) | GI50 (TK-10): > 100 µM (inactive) | GI50 (M19-MEL): > 100 µM (inactive) | GI50 (SK-MEL-28): > 100 µM (inactive) | GI50 (HCT-116): > 100 µM (inactive) | GI50 (LOX IMVI): > 100 µM (inactive) | GI50 (HOP-92): > 100 µM (inactive) | GI50 (COLO 205): > 100 µM (inactive) | GI50 (CCRF-CEM): > 100 µM (inactive) | GI50 (A549): > 100 µM (inactive) | GI50 (KM12): > 100 µM (inactive) | GI50 (LXFL 529): > 100 µM (inactive) | GI50 (NCI-H522): > 100 µM (inactive) | GI50 (DLD-1): > 100 µM (inactive) | GI50 (HL-60): > 100 µM (inactive) | GI50 (SW-620): > 100 µM (inactive) | GI50 (SF-295): > 100 µM (inactive) | GI50 (MOLT-4): > 100 µM (inactive) | GI50 (OVCAR-4): > 100 µM (inactive) | GI50 (U-251): > 100 µM (inactive) | GI50 (DMS-273): > 100 µM (inactive) | GI50 (NCI-H226): > 100 µM (inactive) | GI50 (SNB-19): > 100 µM (inactive) | GI50 (K562): > 100 µM (inactive) | GI50 (UACC-62): > 100 µM (inactive) | GI50 (KM-20L2): > 100 µM (inactive) | GI50 (SNB-78): > 100 µM (inactive) | GI50 (M14): > 100 µM (inactive) | GI50 (786-0): > 100 µM (inactive) | GI50 (ACHN): > 100 µM (inactive) | GI50 (NCI-H460): > 100 µM (inactive) | GI50 (OVCAR-3): > 100 µM (inactive) | GI50 (SNB-75): > 100 µM (inactive)

c1cc(-c2cn3c(n2)SCC3)ccn1
GI50 (SF-539): > 44.9 µM (inactive) | GI50 (HT-29): > 100 µM (inactive) | GI50 (HOP-18): > 100 µM (inactive) | GI50 (DMS-114): > 55 µM (inactive) | GI50 (UO-31): > 100 µM (inactive) | GI50 (SK-MEL-2): > 100 µM (inactive) | GI50 (SK-OV-3): > 100 µM (inactive) | GI50 (UACC-257): > 100 µM (inactive) | GI50 (HCC 2998): > 100 µM (inactive) | GI50 (HCT-15): > 43.2 µM | GI50 (NCI-H23): > 100 µM (inactive) | GI50 (HOP-62): > 100 µM (inactive) | GI50 (EKVX): > 68.9 µM (inactive) | GI50 (A498): > 100 µM (inactive) | GI50 (RPMI-8226): > 65.5 µM (inactive) | GI50 (CAKI-1): > 100 µM (inactive) | GI50 (Malme-3M): > 100 µM (inactive) | GI50 (OVCAR-8): > 100 µM (inactive) | GI50 (XF498): > 100 µM (inactive) | GI50 (OVCAR-5): > 100 µM (inactive) | GI50 (SN12C): > 100 µM (inactive) | GI50 (SK-MEL-5): > 100 µM (inactive) | GI50 (SF-268): > 100 µM (inactive) | GI50 (IGROV-1): > 100 µM (inactive) | GI50 (TK-10): > 100 µM (inactive) | GI50 (M19-MEL): > 60 µM (inactive) | GI50 (HCT-116): > 42.4 µM (inactive) | GI50 (LOX IMVI): > 59.2 µM (inactive) | GI50 (HOP-92): > 100 µM (inactive) | GI50 (COLO 205): > 57.8 µM (inactive) | GI50 (CCRF-CEM): > 61.4 µM (inactive) | GI50 (A549): > 100 µM (inactive) | GI50 (KM12): > 100 µM (inactive) | GI50 (LXFL 529): > 90.6 µM (inactive) | GI50 (NCI-H522): > 100 µM (inactive) | GI50 (DLD-1): > 75.7 µM (inactive) | GI50 (HL-60): > 38.1 µM (inactive) | GI50 (SW-620): > 25.2 µM (inactive) | GI50 (SF-295): > 100 µM (inactive) | GI50 (MOLT-4): > 100 µM (inactive) | GI50 (OVCAR-4): > 100 µM (inactive) | GI50 (U-251): > 73.3 µM (inactive) | GI50 (DMS-273): 28.3 µM (inactive) | GI50 (NCI-H226): > 100 µM (inactive) | GI50 (SNB-19): > 100 µM (inactive) | GI50 (SR): > 100 µM (inactive) | GI50 (K562): > 31.6 µM (inactive) | GI50 (UACC-62): > 100 µM (inactive) | GI50 (KM-20L2): > 100 µM (inactive) | GI50 (SNB-78): > 100 µM (inactive) | GI50 (M14): > 70.8 µM (inactive) | GI50 (786-0): 20.5 µM (inactive) | GI50 (ACHN): > 100 µM (inactive) | GI50 (NCI-H460): > 55.3 µM (inactive) | GI50 (OVCAR-3): > 100 µM (inactive) | GI50 (SNB-75): > 100 µM (inactive)
